# Assay results from US9809799B2, “Methods for inactivating viruses during a protein purification process” (priority 2012, dated 2017).
# Columns and labels:
# [1] = system: Vesicular stomatitis virus (VSV); conditions: cited from earlier work
# [2] = system: Herpes simplex virus-1 (HSV-1); conditions: 20° C., cell culture harvest broth; cited from earlier work
# X-MuLV = X-MuLV virus inactivation using caprylic acid and detergents in test tubes; type: cell-based, xenotropic murine leukemia virus; conditions: for time for complete virus inactivation: clarified cell culture
# [3] = system: Friend murine leukemia virus (FrMuLV); conditions: 0.5%, 4° C., within four hours; cited from earlier work
# [4] = system: respiratory syncytial virus (RSV); conditions: 0.5%, 4° C., within four hours; cited from earlier work
compound,measurement,setting,value
"CCCCCCCC(=O)O [Caprylate, caprylic acid]",inactivation,"[1]; 5° C., after 120 minutes",only partial inactivation
same,time to complete inactivation,"[1]; 20° C., cell culture harvest broth",less than 60 minutes
same,time to complete inactivation,[2],less than 60 minutes
same,X-MuLV virus inactivation (LRV),"X-MuLV; MAb05 cell culture, 20 mM pH 5.5, time 0 min",0
same,X-MuLV virus inactivation (LRV),"X-MuLV; MAb05 cell culture, 20 mM pH 5.5, time 1 min",2.63
same,X-MuLV virus inactivation (LRV),"X-MuLV; MAb05 cell culture, 20 mM pH 5.5, time 5 min",≧3.8
same,X-MuLV virus inactivation (LRV),"X-MuLV; MAb05 cell culture, 20 mM pH 5.5, time 10 min",≧3.8
same,X-MuLV virus inactivation (LRV),"X-MuLV; MAb05 cell culture, 20 mM pH 5.5, time 20 min",≧3.8
same,X-MuLV virus inactivation (LRV),"X-MuLV; MAb05 cell culture, 200 mM pH 7, time 0 min",0
same,X-MuLV virus inactivation (LRV),"X-MuLV; MAb05 cell culture, 200 mM pH 7, time 1 min",2.91
same,X-MuLV virus inactivation (LRV),"X-MuLV; MAb05 cell culture, 200 mM pH 7, time 5 min",≧3.8
same,X-MuLV virus inactivation (LRV),"X-MuLV; MAb05 cell culture, 200 mM pH 7, time 10 min",≧3.8
same,X-MuLV virus inactivation (LRV),"X-MuLV; MAb05 cell culture, 200 mM pH 7, time 20 min",≧3.8
same,X-MuLV virus inactivation (LRV),"X-MuLV; Pure MAb07, 20 mM pH 5.5, time 0 min",0
same,X-MuLV virus inactivation (LRV),"X-MuLV; Pure MAb07, 20 mM pH 5.5, time 1 min",≧3.1
same,X-MuLV virus inactivation (LRV),"X-MuLV; Pure MAb07, 20 mM pH 5.5, time 5 min",≧3.1
same,X-MuLV virus inactivation (LRV),"X-MuLV; Pure MAb07, 20 mM pH 5.5, time 10 min",≧3.1
same,X-MuLV virus inactivation (LRV),"X-MuLV; Pure MAb07, 20 mM pH 5.5, time 20 min",≧3.1
same,X-MuLV virus inactivation (LRV),"X-MuLV; Pure MAb07, 200 mM pH 7, time 0 min",0
same,X-MuLV virus inactivation (LRV),"X-MuLV; Pure MAb07, 200 mM pH 7, time 1 min",≧3.1
same,X-MuLV virus inactivation (LRV),"X-MuLV; Pure MAb07, 200 mM pH 7, time 5 min",≧3.1
same,X-MuLV virus inactivation (LRV),"X-MuLV; Pure MAb07, 200 mM pH 7, time 10 min",≧3.1
same,X-MuLV virus inactivation (LRV),"X-MuLV; Pure MAb07, 200 mM pH 7, time 20 min",≧3.1
same,time for complete virus inactivation,X-MuLV; both pH and salinities,requires a minimum of five minutes
Triton X,Log 10 reduction values,[3],> 3.8
same,Log 10 reduction values,[4],> 5.4
same,X-MuLV virus inactivation (LRV),"X-MuLV; MAb05 cell culture, 0.5%, time 0 min",0
same,X-MuLV virus inactivation (LRV),"X-MuLV; MAb05 cell culture, 0.5%, time 1 min",≧3.1
same,X-MuLV virus inactivation (LRV),"X-MuLV; MAb05 cell culture, 0.5%, time 5 min",≧3.1
same,X-MuLV virus inactivation (LRV),"X-MuLV; MAb05 cell culture, 0.5%, time 10 min",≧3.1
same,X-MuLV virus inactivation (LRV),"X-MuLV; MAb05 cell culture, 0.5%, time 20 min",≧3.1
same,X-MuLV virus inactivation (LRV),"X-MuLV; Pure MAb07, 0.5%, time 0 min",0
same,X-MuLV virus inactivation (LRV),"X-MuLV; Pure MAb07, 0.5%, time 1 min",≧3.1
same,X-MuLV virus inactivation (LRV),"X-MuLV; Pure MAb07, 0.5%, time 5 min",≧3.1
same,X-MuLV virus inactivation (LRV),"X-MuLV; Pure MAb07, 0.5%, time 10 min",≧3.1
same,X-MuLV virus inactivation (LRV),"X-MuLV; Pure MAb07, 0.5%, time 20 min",≧3.1
same,time for complete virus inactivation,X-MuLV; 0.5%,complete virus inactivation after one minute
